From patent US10076511B2, “Bisamide derivative of dicarboxylic acid as an agent for stimulating tissue regeneration and recovery of diminished tissue function” (TREAMID GmbH, priority 2015, dated 2018)

What was measured:
Wistar rats = experiment: Pair-test of sexual behavior, rats of late reproductive (14 months) and presenile (19 months) age; assay type: in vivo, rat; details: for EN (the number of ejaculations) / LFM (latency until the first mount) / MN (the number of mounts): 14-month rats
Method: Erectile dysfunction was simulated by using animals of late and senile reproductive age (14-19 months). Suppression of sexual motivation was simulated by using animals of late reproductive age (14 months).
Experiments on studying the effect of Treamid on copulatory activity were carried out on 76 Wistar rats (14 months and 19 months of age). Treamid was administered intragastrically for 14 days at a dose of 5 mg/kg. Reference drug Sildenafil (100 mg, PFIZER PGM, France) was also administered intragastrically, which corresponded to clinical use, at a dose of 3 mg/kg twice a week. The sexual activity was estimated by the pair-test of sexual behavior. For this purpose female rats in the estrus stage caused by a preliminary 4-fold injection of the Synestrel were involved in the experiment. The effectiveness of Treamid was estimated by the following indices: latency until the first mating attempt (LFM), the number of mating attempts (MN), and the number of ejaculations (EN). The obtained data were compared with those of the same animals before the administration of Treamid (the first test) and with the data in the control group (the second test).

male rats = assay type: in vivo, rat; details: Day 65
Method: The latter was simulated by a single injection of cytostatic drug Paclitaxel (Mitotax, Dr. Reddy's, India) to male rats (3 months of age). The choice of the drug was due to the fact that it is one of the medications that damage the precursors of spermatogenesis—stem cells.
Paclitaxel was administered to the animals of the control and test groups once intravenously at the maximum tolerated dose of 7.6 mg/kg. Treamid was administered to the animals of the experimental groups intragastrically at a dose of 5 mg/kg in the form of a suspension in 2% starch mucus for 15 days a month after the administration of Paclitaxel. The control animals received an equivalent volume of the solvent (2% starch mucus), instead of the test compound.
The colony-stimulating activity of the cells of the microenvironment of spermatogenic tissue (production of humoral regulators of spermatogenesis by Sertoli cells) was determined as follows. The above-described procedure was used to prepare a testis homogenate from which an adherent fraction of cells was isolated. The adherent cells were cultured for 24 hours in complete culture medium at 37° C., 5% CO2 and 100% air humidity. A day later, the supernatant was collected, which was stored at a temperature of […]. The level of humoral factors of spermatogenesis in the supernatant was tested by the test system of CFU-Sp of the testes of intact rats. […]

[1] = test system: precursors for spermatogenic tissue; experiment: Growth of colonies from CFU-Sp with in vitro addition of Treamid; assay type: cell-based, rat; details: Cells of the testes of intact rats
Method: The precursor cells of the studied organ were cultured by using an underlayer (represented by the cells of the adherent fraction) prepared in advance in a 96-well plate, as described above.
Further, a nonadherent cell fraction of spermatogenic tissue was isolated from the two groups of animals (intact animals and animals received Paclitaxel intravenously 24 hours prior to the study) and was transferred to the resulting underlayer in complete culture medium (80% DMEM, 20% FCS, L-glutamine, antibiotics, heparin) at a concentration of 2×10^5/ml. Prior to the incubation in the complete culture medium, Treamid was added at a concentrations of 1 ng/ml, 3 ng/ml, 10 ng/ml, 30 ng/ml, 100 ng/ml, 300 ng/ml and 1000 ng/ml. The incubation lasted for 7 days in a CO2 incubator at 37° C., 5% CO2 and 100% air humidity. After the incubation, the number of colony-forming units, spermatogenic (CFU-Sp)—clusters of more than 30 cells of round shape and of various diameters—was counted.
The effectiveness of Treamid was estimated by a significant increase in the number of cells giving rise to CFU-Sp in the culture with the addition of the test compound, compared to that in the control.
The direct action of Treamid on the precursors for spermatogenic tissue was studied in vitro by addition of Treamid to the cell culture at concentrations of 1, 30, 100, and 1000 ng/ml.

male C57BL/6 mice = experiment: Bleomycin-induced pulmonary fibrosis model; assay type: in vivo, mouse; details: Day 21; 10 mg/kg
Method: Toxic damage of the lung alveolar epithelium causing pulmonary fibrosis was simulated by intra-tracheal administration of the cytostatic bleomycin once in a dose of 80 μg/mouse in 30 μl of physiological saline. Anesthesia during the operation was achieved by using inhalation ether. The surgical field was disinfected with a 70% ethanol solution and hair on this field was removed. The skin, subcutaneous tissue and own fascia of the neck were dissected along the middle line of the neck. The muscles were moved apart on the ventral side of the trachea by the method of blunt separation of tissues. Injection of bleomycin was made on inhalation along the airflow by a Hamilton syringe. After suturing the wound, the surgical field was treated with an antiseptic. The administration of bleomycin was taken as Day 0 of the experiment.
The effectiveness of Treamid and the reproduction of pulmonary fibrosis were estimated by the number and intensity of the synthesis of connective tissue in the lungs, as well as by the histoarchitectonics of the lungs.
Thus, the staining of histological preparations of the lungs of C57BL/6 mice with picrofuxin according to Van Gieson and subsequent visualization of the connective tissue made it possible to register a significant proliferation of the connective tissue, mainly around the vessels and bronchioles (FIG. 5, Table 36). In addition, lung homogenates of the animals of the intact control and pathological control were investigated by enzyme immunoassay.

[2] = First test, before administration of drugs
[3] = Second test, after 14-day administration course, Treamid 5 mg/kg, Sildenafil 3 mg/kg
[4] = 19-month rats, First test (before administration of drugs)
[5] = 19-month rats, Second test (after 14-day administration course), Treamid 5.0 mg/kg

Compound: O=C(CCCC(=O)NCCc1ncc[nH]1)NCCc1ncc[nH]1 [Treamid]
- EN (the number of ejaculations) (Wistar rats; [2]): 0.00 ± 0.00
- LFM (latency until the first mount) (Wistar rats; [2]): 559.08 ± 93.55
- MN (the number of mounts) (Wistar rats; [2]): 1.42 ± 0.50
- EN (the number of ejaculations) (Wistar rats; [3]): 0.60 ± 0.22⋄*
- MN (the number of mounts) (Wistar rats; [3]): 6.90 ± 1.88⋄
- LFM (latency until the first mount) (Wistar rats; Second test, after 14-day administration course, Treamid 5 mg/kg, Sildenafil 3 mg/kg intragastrically): 364.80 ± 127.66
- EN (abs.) (Wistar rats; [4]): 0.00 ± 0.00 abs.
- LFM (Wistar rats; [4]): 310.27 ± 94.59 s
- MN (abs.) (Wistar rats; [4]): 4.27 ± 1.04 abs.
- EN (Wistar rats; [5]): 0.20 ± 0.13⋄*
- LFM (Wistar rats; [5]): 297.20 ± 117.04 s
- MN (abs.) (Wistar rats; [5]): 7.90 ± 1.45⋄ abs.
- increase of the secretory activity of the microenvironment cells compared to the control (male rats): 80%
- CFU-Sp per 4 × 10^4 nuclears ([1]; Treamid 1 ng/ml): 6.83 ± 0.48 per 4 × 10^4 nuclears
- CFU-Sp per 4 × 10^4 nuclears ([1]; Treamid 30 ng/ml): 6.0 ± 0.36 per 4 × 10^4 nuclears
- CFU-Sp per 4 × 10^4 nuclears ([1]; Treamid 100 ng/ml): 8.50 ± 0.42 per 4 × 10^4 nuclears
- CFU-Sp per 4 × 10^4 nuclears ([1]; Treamid 1000 ng/ml): 11.67 ± 1.81 per 4 × 10^4 nuclears
- Hydroxyproline (μg/ml) in the lungs (male C57BL/6 mice): 27.97 ± 2.2 µg/mL
- The content of connective tissue (%) in the lungs (male C57BL/6 mice): 1.17 ± 0.20• %
- Total collagen (mg/ml) in the lungs (male C57BL/6 mice): 23.4 ± 1.7 mg/mL
- Type I collagen (ng/ml) in the lungs (male C57BL/6 mice): 201.6 ± 18 ng/mL
